Measured values as given in patent publication US9474749B2 (priority 2004, dated 2016).
Several values for one entry are separate records, joined by “and”; a condition that tells them apart may be missing. Equal entries are not always repeated. Where two headings read alike, the source gives them in different places.

What was measured:
NMDA NR1 Subunit = assay: NMDA NR1 subunit mRNA expression (RT-PCR); format: cell-based, human
Method: (§1) Isolation of total RNA was performed via RNA MiniPrep Kit (QIAGEN). Concentration of RNA was determined via GeneQuant II Spectrophotometer (Pharmacia Biotech) by multiplying A260 value with dilution factor and nucleic acid constant (0.04). Agarose gel electrophoresis (1%) was used to check for RNA quality.
(§2) RT and PCR reactions were performed in GeneAmp PCR System 9700 (Applied Biosystems) using reverse transcriptase and Taq DNA Polymerase. Forward and reverse gene specific-primers for various subunits of the 20S proteasome and immunoproteasome were either obtained from the literature or designed through Primer Express Software 2.0 (Applied Biosystems) (Table 4). NMDA receptor subunit primers were also designed (Table 4). NMDA receptor expression was used as a marker of neurodegenerative disease.
(§3) All primers were optimized for annealing temperatures and cycles (Table 5). Gel electrophoresis (2% agarose, 0.01% ethidium bromide) was performed and analyzed using a UV transilluminator (UVP) and GelPro Analyzer Software (Applied Biosystems). Relative band intensity was normalized with β-Actin reference gene.

human saphenous veins = assay: NO release from human saphenous veins; conditions: 2×10^−7 M morphine
20S proteasome = assay: Activity of the whole 20S proteasome (fluorometric); format: cell-based, human
Method: (§4) Proteasome function assays were performed in an effort to examine the modulation in levels of protein degradation. Fluorometric assays were performed for both the chymotrypsin activity of the 26S proteasome as well as activity of the whole 20S proteasome using procedures adapted from Kotamraju et al. (Proc. Natl. Acad. Sci. USA, 100:10653-8 (2003)). Excitation at 365 nm and emission at 460 nM of the fluorogenic compound, […] (AMC), were measured using a Spectrofluoroscence Detector (McPherson).

[1] = tested on: 20S Proteasome LMP7 Subunit (β5i); assay: LMP7 immunoproteasome subunit mRNA expression (RT-PCR); format: cell-based, human
Method: as §1, §2, §3

immunocytes = assay: LPS activation of hemolymph cells from morphine pre-treated animals; conditions: single pre-treatment, morphine 10^−6 M, LPS 1 μg/mL
BACE-2 = BACE-2 mRNA expression in HTB-11 cells (RT-PCR); conditions: morphine, 24 hours
Method: (§9) SH-SY5Y human neuroblastoma cells (ATCC, USA) were cultured in Dulbecco's modified Eagle's medium/Ham's nutrient mixture (DMEM-F12) (Invitrogen, USA), and HTB-11 human neuroblastoma cells (ATCC, USA) were cultured in Minimum Essential Medium Alpha Medium (MEM-α) (Invitrogen, USA). […] All treatments were performed under a sterile hood.
(§10) After the treatment time-period, cells were harvested, and total RNA was extracted using RNeasy RNA Isolation kit (Qiagen) following the manufacturer's procedures. Total RNA yield was determined using a Spectrophotometer RNA/DNA calculator (Pharmacia Biotech). Total RNA concentration was then standardized for semi-quantitative RT-PCR, which was carried out in a Geneamp Thermocycler PCR System 9700 (P.E. Applied Biosystems). […] PCR products and a 100 bp DNA marker were then loaded in a 2% agarose gel stained with ethidium bromide. Gel electrophoresis was performed using a power-supply (E-C Apparatus Corp.) set at 110V with constant amperage for 1.5 hours. Gels were then photographed using a Gel Documentation System (UVP), and bands analyzed using Gel-Pro Analyzer (MediaCybernetics) on a P4 Windows machine.

[2] = tested on: SK-N-SH neuroblastoma cell line; assay: Cellular morphology (Form Factor) of neuroblastoma cells; format: cell-based, human; conditions: concomitant morphine and IFNγ
Method: Cell viability was determined via Trypan blue exclusion. An inverted light microscope (Nikon) with a phase-contrast filter was used to observe the cells. Pictures of the cells were taken via a digital camera (Optronix) attached to the microscope ocular. Images were uploaded onto ImagePro Plus Software (Applied Biosystems), where cell viability was calculated based on both the number of cells covering the field and the cells that present as dead from the stain. In addition, ImagePro Plus was used for determining cellular morphology. The area and perimeter were found and used in the formula (4π*Area)/(Perimeter)^2, resulting in a value between 0 (a straight line) and 1 (a perfect circle).

[3] = tested on: SK-N-SH neuroblastoma cell line; assay: NO release from SK-N-SH neuroblastoma cells; conditions: morphine sulfate 5 μM; baseline 2 nM NO
Method: The human SK-N-SH neuroblastoma cell line (ATCC #HTB-11) was used as a cellular model. Cells were propagated in Minimum Essential Medium alpha (MEMα) with 10% fetal bovine serum (FBS), 2% penicillin/streptomycin, 1.5 g/L NaHCO3, and 1.0 mM pyruvic acid. A 5% CO2 incubator (NAPCO) at 37° C. was used for maintenance of temperature and pH. […] When needed, cells were plated in 6- or 12-well plates using a hemocytometer (2×10^5 cells/well in 6-well plates or 1×10^5 cells/well in 12-well plates). Experimental manipulations were performed under sterile conditions under a lamina airflow hood after cells had adhered to the bottom of the plates.

[4] = tested on: Immunoproteasome LMP7 (β5i) Subunit; assay: LMP7 polypeptide expression (Western blot); format: cell-based, human; conditions: 36 and 48 hours
Method: (§5) To determine protein concentrations, protein was harvested using the following buffer: 20 mM Hepes (Sigma), 100 mM NaCl (Fisher), 10 mM NaF (Sigma), 1% Triton X-100 (Sigma), 1 mM sodium orthovanadate (Sigma), 10 mM EDTA (Sigma), pH 7.4, 0.1% protease inhibitor cocktail (Sigma), and ddH2O. Homogenized samples were spun in an ultracentrifuge at 10,000G for 20 minutes at 4° C. Concentration was determined via the Bradford assay (Bio-Rad) using bovine serum albumin (BSA, Sigma) for standard curve. To eliminate any potential pipetting error, samples and standards were read in triplicate.
(§6) Western blotting was performed as follows. SDS-polyacrylamide gels (12% for separation and 5% for stacking) were made using the Mini Trans-Blot Cell (Bio-Rad). Based on the concentrations from the protein concentration determination assay, the proteins were mixed with 2× Protein Loading Buffer (0.2M DTT) for a final volume of 24 μL. Tris-Glycine Electrophoresis Buffer (1×) was used in SDS-PAGE, and proteins were separated at constant amperage (35 mA).
(§7) Subsequent protein transfer to a nitrocellulose membrane involved use of the Mini Trans-Blot Cell apparatus run at constant voltage (100V) for 40 minutes. […]
(§8) Substrate (Pierce) was administered as a means of stimulating chemiluminescence. Blots were developed and subsequently analyzed for relative band intensity using Gel-Pro software (Applied Biosystems).

[5] = tested on: 20S Proteasome X (β5) Subunit; assay: 20S proteasome X subunit protein (Western blot); format: cell-based, human
Method: as §5, §6, §7, §8

[6] = tested on: human immune and vascular tissues; assay: NO release from human immune and vascular tissues; format: cell-based; conditions: morphine 10^−6 M
BACE-1 = BACE-1 mRNA expression in HTB-11 cells (RT-PCR); conditions: 24 hours
Method: as §9, §10

pedal ganglia [7] = assay: NO release from excised pedal ganglia (NO-selective microprobe); format: cell-based, Mytilus edulis
Method: For the nitric oxide assay, ten pedal ganglia (per determination) dissected from M. edulis were bathed in 1 mL sterile phosphate buffered saline (PBS). […] For the opiate receptor antagonist experiments, ganglia were pretreated with naloxone for 10 minutes prior to reticuline addition. NO release was monitored with an NO-selective microprobe manufactured by World Precision Instruments (Sarasota, Fla.). The sensor was positioned approximately 100 μm above the respective tissue surface. […] The NO detection system was calibrated daily. The probe was allowed to equilibrate for 10 minutes in the incubation medium free of tissue before being transferred to vials containing the ganglia for another 5 minutes. Manipulation and handling of the ganglia was only performed with glass instruments. Data was acquired using the Apollo-4000 free radical analyzer (World Precision Instruments, Sarasota, Fla.). The experimental values were then transferred to Sigma-Plot and -Stat (Jandel, Calif.) for graphic representation and evaluation.

Ubiquitin = assay: Free ubiquitin (Western blot); format: cell-based, human
Method: as §5, §6, §7, §8

NMDA NR2B Subunit = assay: NMDA NR2B subunit mRNA expression (RT-PCR); format: cell-based, human
Method: as §1, §2, §3

26S proteasome = assay: Chymotrypsin activity of the 26S proteasome (fluorometric); format: cell-based, human
Method: as §4

Mytilus animals = assay: TNF-α-induced death of animals; conditions: morphine 10^−7 M daily for four days pre-treatment
Method: 100 healthy Mytilus animals were treated with 10 U/mL of TNF-α by injection.

[8] = tested on: 20S Proteasome X Subunit (β5); assay: 20S proteasome X subunit mRNA expression (RT-PCR); format: cell-based, human; conditions: morphine 5 μM, 24 hours; control 0.716±0.015
Method: as §1, §2, §3

pedal ganglia [9] = assay: NO release after daily morphine injections (tolerance); format: in vivo, Mytilus
Method: 45 Mytilus animals were divided into three groups. […] Two hours post-injection, NO release was measured.

Method for SH-SY5Y cells: At various time points (initial and 1, 2, and 7 days), the cells were washed in phosphate buffered saline (PBS), placed in 250 μL PBS, and assessed for NO release. NO release was measured using an Apollo-4000 free radical analyzer with a 30 μm probe. The probe was calibrated daily with SNAP. Each assay was performed in quadruplicate. The mean±the standard error were graphed for each time point.

## CN1CC[C@]23c4c5ccc(O)c4O[C@H]2[C@@H](O)C=C[C@H]3[C@H]1C5 [Morphine, morphine]
NMDA NR1 Subunit
  NR1 expression: 1.40±0.056 AU
Human saphenous veins
  NO released: 7 ± 2 nM
20S proteasome
  20S proteasome activity: decrease in 20S proteasomal function
[1]; 5 μM morphine with rotenone, 24 hours
  LMP7 mRNA expression: 0.792±0.001 AU
[1]; p<0.034
  effect on IFNγ-induced LMP7 mRNA: blocked the LMP7 increase induced by IFNγ
immunocytes
  activation of LPS-treated cells: 19.3±3.8%
BACE-2
  BACE-2 expression: up regulates the expression of BACE-2
[2]
  Form Factor (FF): 0.58±0.01
[3]
  peak NO release: 22.3 nM
[4]
  effect on IFNγ-stimulated LMP7 polypeptide expression: blocked this action
[5]
  X subunit protein band intensity: 162 AU and 188 AU and 168 AU and 154 AU
[6]
  NO release: 26 to 29 nM
BACE-1; 1 μM morphine
  down regulation of BACE-1 expression: 44%
BACE-1; 5 μM morphine
  down regulation of BACE-1 expression: 18%
Pedal ganglia [7]; ligand 10^−7 M
  NO Peak Level: 24.3 ± 3.1 nM
  NO Peak Time: 0.8 ± 0.2 min
Pedal ganglia [7]; reticuline 10^−7 M, morphine 10^−6 M
  duration of ganglionic NO release: 5 min
Ubiquitin; 1 μM morphine, control 44
  free ubiquitin: 64 AU
Ubiquitin; 5 μM morphine
  free ubiquitin: 125 AU
NMDA NR2B Subunit
  NR2B expression: 1.09±0.06 AU and 1.17±0.04 AU
26S proteasome
  activity of the chymotrypsin functional 26S active site: 277 ± 8.0 pM
Mytilus animals
  effect on TNF-α-induced death: reduced the number of animals that died
[8]
  proteasomal X subunit mRNA expression: 0.868±0.007 AU
SH-SY5Y cells; 10^−6 M morphine daily for six days, 10^−6 M on the seventh day
  NO release: 3.4 nM
SH-SY5Y cells; morphine 10^−6 M
  NO release: 3 to 4 nM
Pedal ganglia [9]; 0.01 μM morphine daily
  NO release on day one versus days two, three, and four: level similar
Pedal ganglia [9]; 1 μM morphine daily
  NO release after four days versus day one: substantially lower
Pedal ganglia [9]; 1 μM morphine for four days
  NO release on 10 μM morphine challenge versus one day of 1 μM: about half
